The results in this text go back to patent US20240317752A1, “6-SUBSTITUTED-9H-PURINE DERIVATIVES AND RELATED USES” (Black Diamond Therapeutics, Inc., priority 2021, published 2024).

What is called GI50 is the concentration that inhibits growth by half. The low end stands for more potent growth inhibition, the high end for less potent growth inhibition.

The test has as its target T1, BaF3 BRAF-KIAA1549 fusion cells (Homo sapiens, UniProt P15056).
T1 construct: The BRAF-KIAA1549 fusion mutant was subcloned into pMXs-IRES-Blasticidin (RTV-016, Cell Biolabs, San Diego, CA); fused on or other part: Q9HCM3 (UPF0606 protein KIAA1549)
Description: BaF3 BRAF-KIAA1549 fusion cell proliferation assay (CellTiterGlo). The following applies: 96 hours incubation, potency code. It is filed as cell-based. The method, then:
Retroviral Production: The BRAF-KIAA1549 fusion mutant was subcloned into pMXs-IRES-Blasticidin (RTV-016, Cell Biolabs, San Diego, CA). Retrovirus was produced by transfection of HEK 293T cells with the retroviral BRAF mutant expression vector pMXs-IRES-Blasticidin (RTV-016, Cell Biolabs), pCMV-Gag-Pol vector and pCMV-VSV-G-Envelope vector. Briefly, HEK 293T cells were plated in Poly-D-lysine coated 6-well plate (2.5×10^5 cells per well) and incubated overnight. The next day, retroviral plasmids (1 μg of BRAF-KIAA fusion mutant, 0.32 μg of pCMV-Gag-Pol and 0.165 μg pCMV-VSV-G) were mixed in 300 μL of Optimem (31985, Life Technologies). The mixture was incubated at room temperature for 5 minutes and then added to Optimem containing transfection reagent Lipofectamine (11668, Invitrogen) and incubated for 20 minutes. The mixture was then added dropwise to HEK 293T cells. The next day the medium was replaced with fresh culture medium and retrovirus was harvested at 24 hours.
Generation of BRAF-KIAA1549 fusion stable cell line: BaF3 cells were plated in V-bottom 96 well plate (COSTAR #3894) in 80 μL of RPMI/10% FBS and 0.01 ng/ml mouse IL-3; supplemented with 8 μg/mL polybrene (4×10^4 cells/well). Cells were transduced with 20 μL of BRAF-KIAA1549 fusion viral supernatant by centrifuging for 30 minutes at 1000 rpm. Cells were placed in a 37° C. incubator overnight. Next day 100 μL of RPMI/10% FBS and 0.01 ng/ml mouse IL-3 was added. After 24 hours, 100 μL of cells were transferred to a 24 well plate containing 900 μL of RPMI/10% FBS and 15 μg/mL Blasticidin. Contents of the 24 well plate were sampled for cell viability via CellTiterGlo (Promega) over a 2-week period.
Assay for cell proliferation: BaF3 BRAF-KIAA1549 fusion cells were resuspended at 1.5×10^5c/mL in RPMI containing 10% Heat Inactivated FBS, 1% L-glutamine and dispensed in duplicate ([…]) into 384 well plates. To determine the effect of compound on cell proliferation, BaF3 BRAF-KIAA1549 fusion cells were incubated for 96 hours in the presence of vehicle control (DMSO) or compound at varying concentrations. Inhibition of cell growth was determined by luminescent quantification (Envision by Perkin Elmer) of intracellular ATP content using CellTiterGlo (Promega), according to the protocol provided by the manufacturer. To determine the IC50 values, the vehicle-treated cells were normalized as viable cells and analyzed using the CDD Vault, Collaborative Drug Discovery, Burlingame, CA (the Levenberg-Marquardt algorithm; Levenberg, K., […]; Marquardt, D., 1963).
Tables A1 and A2 assign each compound a code for potency in the BaF3 BRAF-KIAA1549 fusion cell proliferation assay: A, B, C, or D. According to the code, A represents an IC50 value <20 nM; B represents an IC50 value ≥20 nM and <100 nM; C represents an IC50 value ≥100 nM and <500 nM; and D represents an IC50 value ≥500 nM.
Background: In ATP-based viability assays light output follows the ATP content of the culture.

T1 sequence (P15056 whole entry, change not shown, the tested form may be a part): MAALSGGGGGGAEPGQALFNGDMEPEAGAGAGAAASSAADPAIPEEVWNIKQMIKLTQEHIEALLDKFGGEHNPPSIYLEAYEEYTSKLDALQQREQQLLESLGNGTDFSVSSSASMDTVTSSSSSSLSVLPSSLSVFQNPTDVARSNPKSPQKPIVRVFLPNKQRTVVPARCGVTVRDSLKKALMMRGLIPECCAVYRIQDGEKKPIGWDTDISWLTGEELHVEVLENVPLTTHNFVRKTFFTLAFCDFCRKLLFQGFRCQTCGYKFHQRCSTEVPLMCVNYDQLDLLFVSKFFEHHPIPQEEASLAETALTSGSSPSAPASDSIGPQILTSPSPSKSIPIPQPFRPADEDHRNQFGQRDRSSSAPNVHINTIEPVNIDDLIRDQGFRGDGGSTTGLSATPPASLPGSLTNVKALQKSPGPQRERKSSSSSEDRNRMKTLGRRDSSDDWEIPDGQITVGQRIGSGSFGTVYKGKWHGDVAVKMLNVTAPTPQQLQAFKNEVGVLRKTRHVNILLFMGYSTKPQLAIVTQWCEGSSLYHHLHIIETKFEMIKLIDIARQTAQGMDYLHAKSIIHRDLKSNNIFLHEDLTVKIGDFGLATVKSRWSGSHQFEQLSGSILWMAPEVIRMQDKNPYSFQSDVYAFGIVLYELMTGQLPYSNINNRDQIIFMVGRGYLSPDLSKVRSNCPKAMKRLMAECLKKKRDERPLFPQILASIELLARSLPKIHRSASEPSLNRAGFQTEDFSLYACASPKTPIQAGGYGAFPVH

As to `Cc1ccc(NC(=O)c2ccnc(C3CC3)c2)cc1Nc1ncccc1-c1ncnc2[nH]cnc12` [Compound I-19, N-(3-((3-(9H-purin-6-yl)pyridin-2-yl)amino)-4-methylphenyl)-2-cyclopropylisonicotinamide], the 50% growth inhibitory concentration (GI50) is less than 20 nM.
As for `O=C(Nc1ccc(F)c(Nc2ncccc2-c2ncnc3[nH]cnc23)c1)c1cc(C(F)(F)F)ccn1` [Compound I-20], the GI50 lay within 20 to 100 nM.
`O=C(Nc1ccc(Cl)c(Nc2ncccc2-c2ncnc3[nH]cnc23)c1)c1cc(C(F)(F)F)ccn1` [Compound I-21, N-(3-(3-(9H-purin-6-yl)pyridin-2-ylamino)-4-chlorophenyl)-4-(trifluoromethyl)picolinamide]: the 50% growth inhibitory concentration (GI50) was in the range of 20 to 100 nM.
In the case of `Cc1ccc(NC(=O)c2ccc(Cl)c(C#N)c2)cc1Nc1ncccc1-c1ncnc2[nH]cnc12` [Compound I-22, N-(3-((3-(9H-purin-6-yl)pyridin-2-yl)amino)-4-methylphenyl)-4-chloro-3-cyanobenzamide], the concentration for 50% growth inhibition (GI50) is less than 20 nM.
For `Cc1ccc(NC(=O)c2ccc(C#N)cc2)cc1Nc1ncccc1-c1ncnc2[nH]cnc12` [Compound I-26, N-(3-((3-(9H-purin-6-yl)pyridin-2-yl)amino)-4-methylphenyl)-4-cyanobenzamide], the GI50 lay in the range of 100 to 500 nM.
Regarding `Cc1ccc(C(=O)Nc2ccc(C)c(Nc3ncccc3-c3ncnc4[nH]cnc34)c2)cc1` [Compound I-27, N-(3-((3-(9H-purin-6-yl)pyridin-2-yl)amino)-4-methylphenyl)-4-methylbenzamide], the 50% growth inhibitory concentration (GI50) was in the range of 20 to 100 nM.
On to `Cc1ccc(NC(=O)C23CC(Cl)(C2)C3)cc1Nc1ncccc1-c1ncnc2[nH]cnc12` [Compound I-28, N-(3-(3-(9H-purin-6-yl)pyridin-2-ylamino)-4-methylphenyl)-3-chlorobicyclo[1.1.1]pentane-1-carboxamide], for which the GI50 was no less than 500 nM.
The compound `Cc1c(F)cc(NC(=O)c2cc(C(F)(F)F)ccn2)cc1Nc1ncccc1-c1ncnc2[nH]cnc12` [Compound I-29, N-(3-(3-(9H-purin-6-yl)pyridin-2-ylamino)-5-fluoro-4-methylphenyl)-4-(trifluoromethyl)picolinamide] displayed a concentration for 50% growth inhibition (GI50) of 20 to 100 nM.
Compound `Cc1ccc(C(=O)Nc2cncc(C(F)(F)F)c2)cc1Nc1ncccc1-c1ncnc2[nH]cnc12` [Compound I-30, 3-((3-(9H-purin-6-yl)pyridin-2-yl)amino)-4-methyl-N-(5-(trifluoromethyl)pyridin-3-yl)benzamide] yielded a GI50 of less than 20 nM.
Regarding `C#Cc1ccc(C(=O)Nc2ccc(C)c(Nc3ncccc3-c3ncnc4[nH]cnc34)c2)cc1` [Compound I-31, N-(3-((3-(9H-purin-6-yl)pyridin-2-yl)amino)-4-methylphenyl)-4-ethynylbenzamide], the GI50 is less than 20 nM.
For the compound `Cc1ccc(NC(=O)c2ccnc(C3COC3)c2)cc1Nc1ncccc1-c1ncnc2[nH]cnc12` [Compound I-32, N-(3-((3-(9H-purin-6-yl)pyridin-2-yl)amino)-4-methylphenyl)-2-(oxetan-3-yl)isonicotinamide], the GI50 is less than 20 nM.
In the case of `Cc1ccc(NC(=O)c2ccc(C(F)(F)F)c(Cl)c2)cc1Nc1ncccc1-c1ncnc2[nH]cnc12` [Compound I-33, N-(3-((3-(9H-purin-6-yl)pyridin-2-yl)amino)-4-methylphenyl)-3-chloro-4-(trifluoromethyl)benzamide], the GI50 fell in the range of 20 to 100 nM.
For `Cc1ccc(C(=O)Nc2cc(C(F)(F)F)ccn2)cc1Nc1ncccc1-c1ncnc2[nH]cnc12` [Compound I-34, 3-((3-(9H-purin-6-yl)pyridin-2-yl)amino)-4-methyl-N-(4-(trifluoromethyl)pyridin-2-yl)benzamide] the value was 20 to 100 nM; for `Cc1ccc(C(=O)Nc2ccnc(C(F)(F)F)c2)cc1Nc1ncccc1-c1ncnc2[nH]cnc12` [Compound I-35, 3-((3-(9H-purin-6-yl)pyridin-2-yl)amino)-4-methyl-N-(2-(trifluoromethyl)pyridin-4-yl)benzamide], 20 to 100 nM.
With `C#Cc1cc(C(=O)Nc2ccc(C)c(Nc3ncccc3-c3ncnc4[nH]cnc34)c2)ccc1Cl` [Compound I-36, N-(3-((3-(9H-purin-6-yl)pyridin-2-yl)amino)-4-methylphenyl)-4-chloro-3-ethynylbenzamide], the GI50 is less than 20 nM.
Compound `Cc1ccc(NC(=O)c2ccc(Cl)c(C(C)(C)C#N)c2)cc1Nc1ncccc1-c1ncnc2[nH]cnc12` [Compound I-37, N-(3-((3-(9H-purin-6-yl)pyridin-2-yl)amino)-4-methylphenyl)-4-chloro-3-(2-cyanopropan-2-yl)benzamide] had a concentration for 50% growth inhibition (GI50) of 20 to 100 nM.
Consider `Cc1ccc(NC(=O)c2ccc(Cl)c(C3(C#N)CC3)c2)cc1Nc1ncccc1-c1ncnc2[nH]cnc12` [Compound I-38, N-(3-((3-(9H-purin-6-yl)pyridin-2-yl)amino)-4-methylphenyl)-4-chloro-3-(1-cyanocyclopropyl)benzamide], for which the GI50 lay in the range of 20 to 100 nM.
`Cc1ccc(NC(=O)c2cc(C#N)c(Cl)cn2)cc1Nc1ncccc1-c1ncnc2[nH]cnc12` [Compound I-39, N-(3-((3-(9H-purin-6-yl)pyridin-2-yl)amino)-4-methylphenyl)-5-chloro-4-cyanopicolinamide] displayed a GI50 of no less than 500 nM.
`Cc1ncc(NC(=O)c2ccc(Cl)c(C#N)c2)cc1Nc1ncccc1-c1ncnc2[nH]cnc12` [Compound I-40, N-(5-((3-(9H-purin-6-yl)pyridin-2-yl)amino)-6-methylpyridin-3-yl)-4-chloro-3-cyanobenzamide] showed a 50% growth inhibitory concentration (GI50) of no less than 500 nM.
Compound `COc1cc(C(=O)Nc2ccc(C)c(Nc3ncccc3-c3ncnc4[nH]cnc34)c2)ccc1Cl` [Compound I-41, N-(3-((3-(9H-purin-6-yl)pyridin-2-yl)amino)-4-methylphenyl)-4-chloro-3-methoxybenzamide] came in with a concentration for 50% growth inhibition (GI50) of less than 20 nM.
The compound `Cc1ccc(NC(=O)c2ccc(C(F)(F)F)c(C#N)c2)cc1Nc1ncccc1-c1ncnc2[nH]cnc12` [Compound I-42, N-(3-((3-(9H-purin-6-yl)pyridin-2-yl)amino)-4-methylphenyl)-3-cyano-4-(trifluoromethyl)benzamide] registered a GI50 of less than 20 nM.
Compound `Cc1ccc(C(=O)Nc2ccc(C)c(Nc3ncccc3-c3ncnc4[nH]cnc34)c2)cc1C#N` [Compound I-43, N-(3-((3-(9H-purin-6-yl)pyridin-2-yl)amino)-4-methylphenyl)-3-cyano-4-methylbenzamide] gave a GI50 of less than 20 nM.
For the compound `Cc1ccc(NC(=O)CC2CCCC(C(F)(F)F)C2)cc1Nc1ncccc1-c1ncnc2[nH]cnc12` (stereo not drawn) [Compound I-47, N-(3-((3-(9H-purin-6-yl)pyridin-2-yl)amino)-4-methylphenyl)-2-(3-(trifluoromethyl)cyclohexyl)acetamide], the GI50 was less than 20 nM.
The result for `Cc1ccc(NC(=O)c2cnc(C)c(C#N)c2)cc1Nc1ncccc1-c1ncnc2[nH]cnc12` [Compound I-48, N-(3-(3-(9H-purin-6-yl)pyridin-2-ylamino)-4-methylphenyl)-5-cyano-6-methylnicotinamide] reads no less than 500 nM; that for `Cc1ccc(NC(=O)c2ccc(Cl)c(Cl)c2)cc1Nc1ncccc1-c1ncnc2[nH]cnc12` [Compound I-49, N-(3-(3-(9H-purin-6-yl)pyridin-2-ylamino)-4-methylphenyl)-3,4-dichlorobenzamide], less than 20 nM; that for `N#Cc1cc(C(=O)Nc2ccc(F)c(Nc3ncccc3-c3ncnc4[nH]cnc34)c2)ccc1Cl` [Compound I-50, N-(3-(3-(9H-purin-6-yl)pyridin-2-ylamino)-4-fluorophenyl)-4-chloro-3-cyanobenzamide], 20 to 100 nM.
For `Cc1ccc(NC(=O)c2ccc(C)c(C#N)n2)cc1Nc1ncccc1-c1ncnc2[nH]cnc12` [Compound I-51, N-(3-(3-(9H-purin-6-yl)pyridin-2-ylamino)-4-methylphenyl)-6-cyano-5-methylpicolinamide] the value was no less than 500 nM.
